In PubChem BioAssay (NCI):
Values joined by “and” are separate entries in the source; they are usually repeats but may differ in a detail not shown here. Identical values can stand only once.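 Grown in 96-well plates, cells were treated for 48 hours with each compound at five concentrations. Insufficient inhibition: endpoint recorded as highest concentration tested. GI50 marks 50% less growth. TGI: concentration producing complete growth inhibition.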

How the values were obtained:
Assay in all cases: DTP human tumour cell line panel, 48 h
ACHN renal = test system: ACHN renal
A498 renal = test system: A498 renal
SNB-75 CNS = test system: SNB-75 CNS
KM12 colon = test system: KM12 colon
UO-31 renal = test system: UO-31 renal
RXF 393 renal = test system: RXF 393 renal
OVCAR-3 ovarian = test system: OVCAR-3 ovarian
DU-145 prostate = test system: DU-145 prostate
U251 CNS = test system: U251 CNS
UACC-257 melanoma = test system: UACC-257 melanoma

Row | Structure (SMILES) | GI50 (ACHN renal) | TGI (ACHN renal) | GI50 (A498 renal) | TGI (A498 renal) | GI50 (SNB-75 CNS) | TGI (SNB-75 CNS) | GI50 (KM12 colon) | TGI (KM12 colon) | GI50 (UO-31 renal) | TGI (UO-31 renal) | GI50 (RXF 393 renal) | TGI (RXF 393 renal) | GI50 (OVCAR-3 ovarian) | TGI (OVCAR-3 ovarian) | GI50 (DU-145 prostate) | TGI (DU-145 prostate) | GI50 (U251 CNS) | TGI (U251 CNS) | GI50 (UACC-257 melanoma) | TGI (UACC-257 melanoma)
1 | COc1ccc(/C=C/C(=O)c2ccc(Nc3nc(Nc4ccc(F)cc4)nc(Nc4ccc(Cl)cc4)n3)cc2)cc1 | > 100 µM | > 100 µM | > 100 µM | > 100 µM | 16.2 µM | 45.8 µM | > 100 µM | > 100 µM | 56.9 µM | > 100 µM | 13 µM | > 100 µM | > 100 µM | > 100 µM | > 100 µM | > 100 µM | 49 µM | > 100 µM | > 100 µM | > 100 µM
2 | O=C1NC(=O)C(c2ccccc2)=C1Nc1ccccc1 | > 25 µM | > 25 µM | > 22.1 µM | > 25 µM | > 25 µM | > 25 µM | > 25 µM | > 25 µM | > 25 µM | > 25 µM | > 25 µM | > 25 µM | > 25 µM | > 25 µM | > 25 µM | > 25 µM | > 25 µM | > 25 µM |  | 
3 | O=C(/C=C/c1cccc(S(=O)(=O)Nc2ccccc2)c1)NO | 0.429 µM and 0.422 µM | 3.22 µM and 8.44 µM | 0.273 µM and 0.305 µM | 1.34 µM and 1.12 µM |  | 58.1 µM and > 54 µM | 0.426 µM and 0.0714 µM | 9.14 µM and 10.7 µM | 0.448 µM and 0.134 µM | 5.91 µM and 29.5 µM | 0.342 µM and 0.101 µM | 1.79 µM and 1.88 µM | 0.565 µM and 0.512 µM | 4.16 µM and 3.76 µM | 0.444 µM and 0.111 µM | 17.8 µM | 0.597 µM and 0.496 µM | 4.38 µM and 10.7 µM | 0.553 µM and 0.25 µM | 10.8 µM and > 100 µM
4 | CCCCCCc1cc2cc(-c3csc(/C=C/c4ccccc4)n3)c(=O)oc2cc1O | 4.19 µM | 15.2 µM | 14.4 µM | 30.5 µM | 11.5 µM | 26.5 µM | 4.42 µM | 16.4 µM | 15.7 µM | > 100 µM | 3.71 µM | 15.1 µM | 3.52 µM | 9.98 µM | 12.8 µM | 44.7 µM | 2.91 µM | 10.5 µM | 40.4 µM | > 100 µM
5 | O=C(c1cccs1)c1nc2cc(Cl)ccc2[n+]([O-])c1C(F)(F)F | > 100 µM | > 100 µM | 92 µM | > 100 µM | 57.3 µM | > 100 µM | 85.4 µM | > 100 µM | > 100 µM | > 100 µM | 44.3 µM | > 100 µM | > 100 µM | > 100 µM | > 100 µM | > 100 µM | > 100 µM | > 100 µM | 49.9 µM | > 100 µM
6 | O=C1/C(=C\c2ccccc2)CN(C(=O)c2ccccc2)C/C1=C\c1ccccc1 | 1.73 µM | 3.33 µM | 13 µM | 27.4 µM | 7.24 µM | 22 µM | 1.79 µM | 3.4 µM | 1.7 µM | 3.92 µM | 1.68 µM | 3.21 µM | 2.69 µM | 6.34 µM | 5.02 µM | 16.4 µM | 1.92 µM | 4.44 µM | 2 µM | 5.16 µM
7 | COc1ncc(-c2ccc3nccc(C#CCN4CCN(S(C)(=O)=O)CC4)c3c2)cc1NS(=O)(=O)c1ccc(F)cc1F | 0.05 µM | 3.39 µM | 0.048 µM | 0.309 µM | 0.0106 µM | 0.152 µM | 0.293 µM | 1.55 µM | 0.0274 µM | 3.73 µM | 0.0438 µM | 0.354 µM | 0.0466 µM | 0.982 µM | 0.108 µM | 12.6 µM | 0.211 µM | 1.75 µM | 0.0386 µM | 0.517 µM
8 | CN(CSc1ccc(Cl)cc1)c1ccc(CSc2ccc(Cl)cc2)cc1 | 6.28 µM | 22.3 µM | 1.59 µM | 9.61 µM | 2.93 µM | 16.1 µM | 3.24 µM | 15.1 µM | 1.06 µM | 4.18 µM | 8.28 µM | 23.6 µM | 1.97 µM | 5.17 µM | 6.69 µM | 25.3 µM | 6.87 µM | 23.5 µM | 10.3 µM | 34.8 µM
9 | NCCCNc1nc2ccc(Cl)cc2c2c(=O)c3cc(F)ccc3sc12 | 1.94 µM | 4 µM | 6.1 µM | 21 µM | 4.15 µM | 19.1 µM | 1.77 µM | 3.43 µM | 3.35 µM | 16.1 µM | 2.95 µM | 12.3 µM | 1.92 µM | 4.03 µM | 1.97 µM | 4.05 µM |  |  | 15.7 µM | 35.3 µM
10 | C=C(CN1CCN(c2ccccc2C(F)(F)F)CC1)c1ccc(C(=O)Nc2ccccc2N)cc1 | 7.19 µM | > 100 µM | 5.36 µM | 31.8 µM | 2.82 µM | 20.1 µM | 2.04 µM | 11.7 µM | 1 µM | > 60.3 µM | 1.67 µM | 4.78 µM | 5.92 µM | 38.3 µM | 7.51 µM | > 49.5 µM | 4.64 µM | > 68.1 µM | 4.66 µM | > 62.6 µM
11 | O=C1c2cccnc2C(=O)c2c1c(C(=O)OCCc1ccccn1)c1ccccn21 | < 0.01 µM | 1.22 µM | < 0.0378 µM | 0.824 µM | < 0.0153 µM | 1.71 µM | 0.0946 µM | > 22.4 µM | < 0.0117 µM | 0.387 µM | 0.124 µM | 1.4 µM | 0.0305 µM | 1.45 µM | 0.0296 µM | 1.22 µM | 0.0216 µM | 0.261 µM | 0.152 µM | 0.583 µM
12 | COc1ccc(C2CC(c3ccc4ccccc4c3)=NN2c2nc(O)c(C3=c4cc(OC)ccc4=NC3=O)s2)cc1 (stereo not given) | 0.0678 µM | 0.419 µM | 0.124 µM | 0.3 µM | 0.0779 µM | 0.445 µM | 0.0856 µM | 0.286 µM | 0.202 µM | 0.414 µM | 0.0266 µM | 0.0831 µM | 0.0569 µM | 0.17 µM | 0.0449 µM | 14.1 µM | 0.0323 µM | 0.0975 µM | 0.718 µM | 6.14 µM
